# Data published in patent publication EP0572271B1, “Acyl lactylates as antimicrobial actives” (UNILEVER PLC, priority 1992, dated 1993).
# Assays:
# [1] = tested on: Pseudomonas cepacia; test: Challenge test with repeated bacterial inoculation of preserved compositions; type: cell-based
# Experimental: (§1) This test involved incubating under standard conditions test compositions which have been inoculated with a selected bacterium, yeast or a mixture of moulds. […] Accordingly, the higher the number of "challenges", the better is the preservative substance in preventing or at least delaying microbial spoilage.
# (§2) The microorganisms selected for this test were: • i) Pseudomonas cepacia - a gram-negative bacterium, • ii ) Aspergillus niger & Penicillium notatum, - a mixture of moulds.
# For the bacterium the method of testing was as follows: • i) Introduce aseptically 99ml of test composition into a 250ml flask and add 1ml of inoculum of one of the test organisms (see above), to provide a dilution of 10^6 cells/ml in the composition. • ii) mix and incubate at 28°C for 24 hours. • iii) remove 1ml of incubated composition from the flask and add to it as diluent 9ml of an aqueous solution containing 0.1% by weight peptone and 2% by weight Tween 80, and mix thoroughly. • iv) place 1ml of diluted sample into a petri dish and add warm, molten agar (40°C) and mix to distribute culture uniformly and allow to set. • v) incubate plates for 3 days at 28°C and then count colonies and note log reduction of count (due to the presence of the preservative in the original culture composition).
# The inoculation of the organisms originally introduced into each composition is then repeated at 24 hour intervals, following removal of the first total viable count sample, the plating out and counting procedure being repeated on each occasion. The test is terminated when the samples show a contamination level greater than 10^2 counts per ml on 2 consecutive days. This point is regarded as the failure point for the composition under test.
# The greater the number of inoculations of contaminant organisms before this level of contamination is established in the composition, the better the preservative system.
# [2] = tested on: Aspergillus niger & Penicillium notatum; test: Mould challenge test: mould spore suspension inoculated into preserved compositions; type: cell-based; conditions: Example 2: oil-in-water emulsion, pH 5.5, material usually 1.0 wt%; for Mould challenge 1%: 1% by volume spore suspension; for Mould challenge 10%: 10% by volume spore suspension
# Experimental: as §1, §2
# The above procedure applies to the inoculation of the bacterium. For testing with the mixed culture of moulds this procedure was varied slightly, as follows:
# Two samples of each test composition (9.9ml and 9ml) were transferred to sterile flasks and 0.1ml or 1ml, (i.e. 1% or 10% by volume) of a mould spore suspension (approximately 10^8 spores per ml) was introduced into the respective samples and thoroughly mixed. The inoculated samples were incubated at 28°C for up to 28 days with 1ml samples being aseptically removed for the total viable count as outlines above using Sabourand's dextrose agar after 1, 7, and 28 days.
# A composition is classed as "low risk" if mould spores are eliminated in 1 to 2 days. "Medium risk" compositions take 7 to 14 days to eliminate the spores and "high risk" compositions still have surviving mould spores after 14 days incubation.
# [3] = tested on: several types of bacteria; conditions: statement in words on prior art US patent 3,275,503; cited from earlier work
# [4] = tested on: aspergillus niger; conditions: statement in words on prior art US patent 3,275,503; cited from earlier work
# [5] = Example 2: oil-in-water emulsion, pH 5.5, material usually 1.0 wt%
# [6] = Example 3: shampoo formulation, pH 6.0, material added 1 wt%
compound,measurement,setting,value
CCCCCCCCCCCC(=O)OCC(O)CO (stereo not drawn) [Monolaurin],No of inoculations to failure (Bacteria),[1]; [5],1
same,No of inoculations to failure (Bacteria),[1]; [6],1
same,Mould challenge 1%,[2],++++
same,Mould challenge 10%,[2],++++
CCCCCCCCCCCC(=O)O [Lauric acid],No of inoculations to failure (Bacteria),[1]; [5],1
same,No of inoculations to failure (Bacteria),[1]; [6],1
same,Mould challenge 1%,[2],++++
same,Mould challenge 10%,[2],++++
CCCCCCCCCC(=O)OC(C)C(=O)OC(C)C(=O)[O-].CCCCCCCCCC(=O)OC(C)C(=O)OC(C)C(=O)[O-].[Ca+2] (stereo not drawn) [calcium capryl-2 lactylate],effectiveness against several types of bacteria,[3],very effective
same,"efficacy to inhibit the growth of moulds, like aspergillus niger",[4],leaves much to be desired
CCCCCC(=O)OC(C)C(=O)O (stereo not drawn) [Hexanoyl lactylate],No of inoculations to failure (Bacteria),[1]; [5],>21
same,No of inoculations to failure (Bacteria),[1]; [6],>21
same,Mould challenge 1%,[2],+
same,Mould challenge 10%,[2],+
Octanoyl lactylate,No of inoculations to failure (Bacteria),[1]; [5],20
same,No of inoculations to failure (Bacteria),[1]; [6],2
same,Mould challenge 1%,[2],+
same,Mould challenge 10%,[2],++++
CC(C)=CCCC(C)=CCCC(C)=CCO [Farnesol],No of inoculations to failure (Bacteria),[1]; [5],1
same,Mould challenge 1%,[2],++++
same,Mould challenge 10%,[2],++++
